According to PubChem BioAssay AID602210 (Sanford-Burnham Center for Chemical Genomics, 2012):
pIC50: −log10 of the molar value. Active and inactive are the calls of the source. How the calls were made is not given here.

Test: modulators of 2-deoxyglucose-induced H9c2 death, dose response, myocardial damage modulator project, cell-based, ATPlite luminescence, rat, set 2 (AID 602210)
Conditions: H9c2 rat cardiomyoblasts, 2-deoxyglucose-induced death, 2 h

| Structure (SMILES) | IC50 | pIC50 |
| --- | --- | --- |
| O=C(NC1CCCCC1)C(c1ccc2ncccc2c1)N(Cc1ccco1)C(=O)c1ccc2c(c1)OCCO2 (stereo not drawn) | 42.5 µM (inactive) | – |
| CC(=O)Nc1cccc(NC(=O)c2cc(-c3cccnc3)nc3ccc(Cl)cc23)c1 | > 79 µM (inactive) | – |
| COc1cccc(/C=N/NC(=O)c2oc3nc(-c4ccccc4)cc(-c4ccco4)c3c2N)c1 | 10.5 µM (inactive) | – |
| CCOc1ccc(S(=O)(=O)N(C)CCO)cc1-c1nc2c(C(C)(C)C)nn(C)c2c(=O)[nH]1 | 33.2 µM (inactive) | – |
| COc1cc(-c2cc(C(=O)OCC(=O)NC3CC3)c3ccccc3n2)cc(OC)c1OC | 13.2 µM (inactive) | – |
| O=C(N/N=C/c1ccccn1)c1cc(-c2cccc3ccccc23)n[nH]1 | 20.7 µM (inactive) | – |
| COC(=O)c1cc2c(C)c(C)c3ccccn3c-2c1C(=O)OC | – | 5.14 |
| Cc1nc(SCC(=O)N2CCN(c3ccccc3)CC2)c2oc3ccccc3c2n1 | 25.8 µM (inactive) | – |
| O=C(Nc1cccc2cccnc12)c1ccc2sc([C@H]3C[C@H](O)[C@@H](CO)O3)nc2c1 | 24.3 µM (inactive) | – |
| COc1ccc(N(CC(=O)Nc2cccc(C(C)=O)c2)S(=O)(=O)c2ccc(NC(C)=O)cc2)cc1 | 13.4 µM (inactive) | – |
| COc1cc(-c2cc(NC(C)=O)c3ncc(-c4ccccc4)n3c2)cc(OC)c1OC | > 79 µM (inactive) | – |
| COc1ccc(NC(=O)c2cc3c(=O)n(C)c4ccccc4c3n2C)cc1OC | > 79 µM (inactive) | – |
| O=C(C[C@H]1C/C=C\CC[C@H](Cc2ccc(F)cc2)C(=O)O[C@H](c2ccccc2)CNC1=O)N[C@H](CO)Cc1ccccc1 | – | 5.12 |
